Source: patent US20050130989A1, “N-arylheteroaromatic products compositions containing them and use thereof” (Aventis Pharma S. A., priority 2003, published 2005)
pIC50: −log10 of the molar value. Where a name gives a salt, the structure may show the parent alone.

The compounds below were run against T1, tubulin (Sus scrofa, UniProt P02550+P02554) (assay: Evaluation of the inhibition of tubulin polymerization (turbidimetry)). Details: tubulin 10 μm (1 mg/ml), 37° C., turbidity at 350 nm; concentration that inhibits the rate of polymerization by 50%; read-out: Inhibition of tubulin polymerization IC 50 (μm).
T1 construct: Tubulin is purified from pig brain according to published methods; from tissue; host or cells: pig brain
T1 sequence (P02550 whole entry): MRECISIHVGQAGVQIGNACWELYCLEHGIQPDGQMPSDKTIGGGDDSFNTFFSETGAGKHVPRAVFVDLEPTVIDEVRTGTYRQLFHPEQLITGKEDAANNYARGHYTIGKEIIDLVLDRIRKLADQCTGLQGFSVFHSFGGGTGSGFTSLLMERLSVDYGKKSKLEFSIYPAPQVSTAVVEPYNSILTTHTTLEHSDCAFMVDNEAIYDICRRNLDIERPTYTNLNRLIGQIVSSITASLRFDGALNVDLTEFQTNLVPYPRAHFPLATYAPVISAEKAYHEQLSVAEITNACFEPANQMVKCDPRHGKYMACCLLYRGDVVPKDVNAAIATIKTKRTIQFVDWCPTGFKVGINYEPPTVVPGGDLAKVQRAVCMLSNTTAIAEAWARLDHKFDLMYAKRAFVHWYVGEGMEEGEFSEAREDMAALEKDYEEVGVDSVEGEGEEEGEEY
T1 sequence (P02554 whole entry): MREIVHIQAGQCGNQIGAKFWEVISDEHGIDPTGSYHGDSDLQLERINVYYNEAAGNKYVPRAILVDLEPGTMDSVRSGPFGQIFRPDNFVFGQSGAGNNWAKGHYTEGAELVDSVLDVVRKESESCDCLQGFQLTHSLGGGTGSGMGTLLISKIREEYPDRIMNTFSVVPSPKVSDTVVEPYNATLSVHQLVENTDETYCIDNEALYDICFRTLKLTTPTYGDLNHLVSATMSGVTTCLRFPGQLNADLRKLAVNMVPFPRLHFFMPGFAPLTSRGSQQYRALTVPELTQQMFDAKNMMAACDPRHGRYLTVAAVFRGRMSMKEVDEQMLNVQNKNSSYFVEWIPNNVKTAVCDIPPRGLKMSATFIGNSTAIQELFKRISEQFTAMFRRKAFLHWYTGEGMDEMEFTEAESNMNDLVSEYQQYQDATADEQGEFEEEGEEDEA
Type: biochemical, pig
Procedure: Tubulin is purified from pig brain according to published methods (Shelanski et al., 1973, Proc. Natl. Acad. Sci. USA, 70, 765-768. Weingarten et al., 1975, Proc. Natl. Acad. Sci. USA, 72, 1858-1862). Briefly, the brains are ground and centrifuged in an extraction buffer. The tubulin contained in the supernatant of the extract undergoes two successive cycles of polymerization at 37° C. and depolymerization at 4° C., before being separated from the MAPs (Microtubule Associated Proteins) by chromatography on a phosphocellulose P11 column (Whatman). The tubulin thus isolated is more than 95% pure. It is stored in a buffer known as RB/2 30% glycerol, the composition of which is 50 mM MES-NaOH [2-(N-morpholino)ethanesulfonic acid], pH 6.8; 0.25 mM MgCl2; 0.5 mM EGTA; 30% glycerol (v/v), 0.2 mM GTP (guanosine-5′-triphosphate).
The polymerization of tubulin to microtubules is monitored by turbidimetry as follows: the tubulin is adjusted to a concentration of 10 μm (1 mg/ml) in RB/2 30% glycerol buffer to which 1 mM GTP and 6 mM MgCl2 are added. The polymerization is triggered by an increase in temperature from 6° C. to 37° C. in a cuvette with an optical path length of 1 cm, placed in a UVIKON 931 spectrophotometer (Kontron) equipped with a thermostatically maintained cuvette holder. The increase in the turbidity of the solution is monitored at 350 nm.
The products are dissolved at 10 mM in DMSO and added at variable concentrations (0.5 to 10 μm) to the tubulin solution before polymerization. The IC50 value is defined as the concentration of product that inhibits the rate of polymerization by 50%.
Compound Cc1cc(C(=O)N2CCN(c3cc(Cl)ccc3C)CC2)n(-c2cccc(Cl)c2)n1 [3/70] has a pIC50 of 4.90.
Cc1cc(C(=O)N2CCN(c3cccc4ccccc34)CC2)n(-c2cccc(Cl)c2)n1 [3/124] gave a pIC50 of 4.92.
With Cc1cc(C(=O)N2CCN(c3ccc(C)c(C)c3)CC2)n(-c2ccc(F)cc2)n1 [3/103] the pIC50 was 4.68.
Work on O=C(c1cc(CSc2ccccc2)nn1-c1ccccc1)N1CCN(c2cccc(Cl)c2)CC1 [Example E102, [4-(3-Chlorophenyl)piperazin-1-yl](2-phenyl-5-phenylsulfanylmethyl-2H-pyrazol-3-yl)methanone] yielded a pIC50 of 4.74.
For COc1cc(OC)cc(N2CCN(C(=O)c3cc(CC#N)nn3-c3ccccc3)CC2)c1 [Example E135, (5-Cyanomethyl-2-phenyl-2H-pyrazol-3-yl)[4-(3,5-dimethoxyphenyl)piperazin-1-yl]methanone], the pIC50 was 6.30.
Cc1cc(C(=O)N2CCN(c3cccc(CO)c3)CC2)n(-c2ccccc2)n1 [Example E132, [4-(3-Hydroxymethylphenyl)piperazin-1-yl](5-methyl-2-phenyl-2H-pyrazol-3-yl)methanone] was tested, and the pIC50 was 6.05.
For COc1cc(OC)cc(N2CCN(C(=O)c3cc(CN)nn3-c3ccccc3)CC2)c1 [Example E120, (5-Aminomethyl-2-phenyl-2H-pyrazol-3-yl)[4-(3,5-dimethoxyphenyl)piperazin-1-yl]methanone], the pIC50 was 4.75.
Cc1cc(C(=O)N2CCN(c3cccc(OC(F)F)c3)CC2)n(-c2ccccc2)n1 [Example E136, [4-(3-Difluoromethoxyphenyl)piperazin-1-yl](5-methyl-2-phenyl-2H-pyrazol-3-yl)methanone hydrochloride] showed a pIC50 of 5.89.
For COc1cc(OC)cc(N2CCN(C(=O)c3cc(Br)nn3-c3ccc(Br)cc3)CC2)c1 [Example E81, [5-Bromo-2-(4-bromophenyl)-2H-pyrazol-3-yl][4-(3,5-dimethoxyphenyl)-piperazin-1-yl]methanone], the pIC50 was 4.77.
For COc1cc(OC)cc(N2CCN(C(=O)c3cc(COCCF)nn3-c3ccccc3)CC2)c1 [Example E123, [4-(3,5-Dimethoxyphenyl)piperazin-1-yl][5-(2-fluoroethoxymethyl)-2-phenyl-2H-pyrazol-3-yl]methanone], the pIC50 was 5.60.
Compound COc1cc(OC)cc(N2CCN(C(=O)c3cc(N4CCC4)nn3-c3ccccc3)CC2)c1 [Example E129, [5-(Azetidin-1-yl)-2-phenyl-2H-pyrazol-3-yl][4-(3,5-dimethoxyphenyl)piperazin-1-yl]methanone] has a pIC50 of 6.05.
Cc1ccc(C)c(N2CCN(C(=O)c3cc(C)nn3-c3ccccc3)CC2)c1 [3/108] gave a pIC50 of 5.46.
COc1ccc(Cl)cc1N1CCN(C(=O)c2cc(C)nn2-c2cccc(Cl)c2)CC1 [3/127] gave a pIC50 of 5.74.
Compound “N-{{3-{[4-(3,5-Dimethoxyphenyl)piperazin-1-yl]carbonyl}-2-phenyl-2H-pyrazin-5-yl}glycine tert-butyl ester [Example E137]” has a pIC50 of 5.49.
In the case of COc1ccc(-n2nc(C)cc2C(=O)N2CCN(c3ccccc3)CC2)cc1 [3/1], the pIC50 was 4.70.
With COc1cc(OC)cc(N2CCN(C(=O)c3cc(-c4ccsc4C=O)nn3-c3ccccc3)CC2)c1 [Example E114, 3-{5-[4-(3,5-Dimethoxyphenyl)piperazine-1-carbonyl]-1-phenyl-1H-pyrazol-3-yl}thiophene-2-carboxaldehyde] the pIC50 was 4.89.
In the case of COc1cc(OC)cc(N2CCN(C(=O)c3cc(N4CCCCC4)nn3-c3ccccc3)CC2)c1 [Example E138, [4-(3,5-dimethoxyphenyl)piperazin-1-yl][5-(piperid-1-yl)-2-phenyl-2H-pyrazol-3-yl)methanone], the pIC50 was 4.66.
For O=C(c1cc(Br)nn1-c1ccc(Br)cc1)N1CCN(c2cccc(Cl)c2)CC1 [Example E64, [5-Bromo-2-(4-bromophenyl)-2H-pyrazol-3-yl][4-(3-chlorophenyl)piperazin-1-yl]methanone], the pIC50 was 5.46.
COc1cccc(-n2nc(C)cc2C(=O)N2CCN(c3ccccc3SC)CC2)c1 [3/137] showed a pIC50 of 5.38.
Cc1cc(C(=O)N2CCN(c3cccc(C)c3C)CC2)n(-c2cccc(Cl)c2)n1 [3/122] showed a pIC50 of 5.12.
Compound COc1cc(OC)cc(N2CCN(C(=O)c3c(F)c(F)nn3-c3ccccc3)CC2)c1 [Example E139, [4-(3,5-dimethoxyphenyl)piperazin-1-yl](4,5-difluoro-2-phenyl-2H-pyrazol-3-yl)methanone] has a pIC50 of 5.54.
Work on Cc1cc(C(=O)N2CCN(c3ccccn3)CC2)n(-c2ccccc2)n1 [3/107] yielded a pIC50 of 4.90.
COC(=O)/C=C/c1cc(C(=O)N2CCN(c3cc(OC)cc(OC)c3)CC2)n(-c2ccccc2)n1 [Example E126, Methyl E-3-{5-[4-(3,5-dimethoxyphenyl)piperazine-1-carbonyl]-1-phenyl-1H-pyrazol-3-yl}acrylate] was tested, and the pIC50 was 6.10.
In the case of Cc1ccc(C)c(-n2nc(C)cc2C(=O)N2CCN(c3cccc(Cl)c3)CC2)c1 [Example E47, [4-(3-Chlorophenyl)piperazin-1-yl][2-(2,5-dimethylphenyl)-5-methyl-2H-pyrazol-3-yl]methanone], the pIC50 was 5.81.
CSc1ccccc1N1CCN(C(=O)c2cc(C)nn2-c2ccccc2)CC1 [3/12] gave a pIC50 of 5.52.
Cc1cccc(-n2nc(C)cc2C(=O)N2CCN(c3cccc(C)c3C)CC2)c1 [3/114] showed a pIC50 of 6.10.
With COCOCc1cc(C(=O)N2CCN(c3cccc(C(N)=O)c3)CC2)n(-c2ccccc2)n1 [Example E113, 3-[4-(5-Methoxymethoxymethyl-2-phenyl-2H-pyrazole-3-carbonyl)piperazin-1-yl]benzamide] the pIC50 was 5.04.
With Cc1cc(C(=O)N2CCN(c3cccc(Cl)c3)CC2)n(-c2ccc([N+](=O)[O-])cc2)n1 [Example E49, [4-(3-Chlorophenyl)piperazin-1-yl][5-methyl-2-(4-nitrophenyl)-2H-pyrazol-3-yl]-methanone] the pIC50 was 4.69.
Compound Cc1cc(C(=O)N2CCN(c3ccccc3F)CC2)n(-c2ccccc2)n1 [3/111] has a pIC50 of 4.90.
Work on Cc1cc(C(=O)N2CCN(c3cc(Cl)ccc3C)CC2)n(-c2ccc(F)cc2)n1 [3/117] yielded a pIC50 of 5.15.
COc1ccccc1N1CCN(C(=O)c2cc(C)nn2-c2ccc(C)cc2)CC1 [3/130] was tested, and the pIC50 was > 4.60.
Work on CCOc1ccccc1N1CCN(C(=O)c2cc(C)nn2-c2cccc(C)c2)CC1 [3/115] yielded a pIC50 of 4.70.
Work on COc1cc(OC)cc(N2CCN(C(=O)c3cc(C(C)O)nn3-c3ccccc3)CC2)c1 (stereo not drawn) [Example E127, [4-(3,5-Dimethoxyphenyl)piperazin-1-yl][5-(1-hydroxyethyl)-2-phenyl-2H-pyrazol-3-yl]methanone] yielded a pIC50 of 5.64.
Compound Cc1cc(C(=O)N2CCN(c3cncc(O)c3)CC2)n(-c2ccccc2)n1 [Example E140, [4-(5-hydroxypyrid-3-yl)piperazin-1-yl](5-methyl-2-phenyl-2H-pyrazol-3-yl)-methanone] has a pIC50 of 4.78.
For CCC(O)c1cc(C(=O)N2CCN(c3cc(OC)cc(OC)c3)CC2)n(-c2ccccc2)n1 (stereo not drawn) [Example E125, [4-(3,5-Dimethoxyphenyl)piperazin-1-yl][5-(1-hydroxypropyl)-2-phenyl-2H-pyrazol-3-yl]methanone], the pIC50 was 5.39.
Compound CCOC(=O)/C=C/c1cc(C(=O)N2CCN(c3cc(OC)cc(OC)c3)CC2)n(-c2ccccc2)n1 [Example E112, Ethyl E-3-{5-[4-(3,5-dimethoxyphenyl)piperazine-1-carbonyl]-1-phenyl-1H-pyrazol-3-yl}acrylate] has a pIC50 of 5.52.
